Test results reported in patent US20250129044A1 (priority 2021, published 2025).

Molecular target: sodium channel isoforms (Homo sapiens, UniProt P35498)
Assay type: cell-based
Settings: area under the sodium current trace, step from −120 mV to 0 mV, HEK cells
Description: The sodium channel isoforms of interest are stably expressed in Human Embryonic Kidney Cells and the currents that flow through those channels in response to a depolarizing voltage clamp step from −120 mV to 0 mV are measured in the presence of increasing concentrations of the chemical agents. The area under the sodium current trace which correlates to the magnitude of sodium flux through the cell membrane is used to quantify the effects on gating of the channels. Other parameters that are measured in the assay include the peak current, time constant of open state inactivation and the voltage dependence of steady state inactivation properties. The concentration responses are used to determine potency of each chemical agents effects on modulating the sodium channel isoform gating. Such techniques are known to those skilled in the art, and may be developed, using current technologies, into low or medium throughput assays for evaluating compounds for their ability to modulate sodium channel behaviour.

Row | SMILES | EC50 [nM] | Empirical Emax
1 | O=C(Nc1c(-c2cc(F)ccc2F)ccnc1C1CCC(F)(F)CC1)c1cnc(N2CC3CC(C3)C2)nc1 [Example 166, 2-(3-azabicyclo[3.1.1]heptan-3-yl)-N-(2-(4,4-difluorocyclohexyl)-4-(2,5-difluorophenyl)pyridin-3-yl)pyrimidine-5-carboxamide] | < 1000 | –
2 | CN(C)c1ncc(C(=O)Nc2c(-c3ccccc3F)ccnc2C2CCC(F)(F)CC2)cn1 [Example 2, N-[2-(4,4-difluorocyclohexyl)-4-(2-fluorophenyl)-3-pyridyl]-2-(dimethylamino)pyrimidine-5-carboxamide] | – | ++++ (++++ indicates a value greater than 7.5)
3 | CC(C)c1ncc(C(=O)Nc2c(-c3ccccc3F)ccnc2C2CCC(F)(F)CC2)cn1 [Example 15, N-[2-(4,4-difluorocyclohexyl)-4-(2-fluorophenyl)-3-pyridyl]-2-isopropyl-pyrimidine-5-carboxamide] | – | ++++ (++++ indicates a value greater than 7.5)
4 | COc1ccc(C(=O)Nc2c(-c3cc(F)ccc3F)ccnc2C2CCC(F)(F)CC2)cn1 [Example 8, N-[2-(4,4-difluorocyclohexyl)-4-(2,5-difluorophenyl)-3-pyridyl]-6-methoxy-pyridine-3-carboxamide] | – | +++ (+++ indicates a value from 5.0 up to 7.5 μM)
5 | CC(C)c1ncc(C(=O)Nc2c(-c3ccccc3F)ccnc2[C@H]2CC[C@](O)(C(F)(F)F)CC2)cn1 [Example 21, N-[4-(2-fluorophenyl)-2-[4-hydroxy-4-(trifluoromethyl)cyclohexyl]-3-pyridyl]-2-isopropyl-pyrimidine-5-carboxamide] | – | + (+ indicates a value less than 2.0 μM)
